# Measurements reported in paper PMC12298351, “Novel 3,19-(N-Phenyl-3-(4-fluorophenyl)-pyrazole) Acetal of Andrographolide Promotes Cell Cycle Arrest and Apoptosis in MDA-MB-231 Breast Cancer Cells” (Pharmaceuticals, 2025).
# Tests used:
# [1] = system: PC-3; details: PC-3, Prostate; for CC50: read-out: 50% lethal concentration (LC50)
# [2] = system: SK-MEL-2; details: SK-MEL-2, Melanoma
# [3] = system: UACC-257; details: UACC-257, Melanoma
# [4] = system: LOX IMVI; details: for GI50 / Total growth inhibition (TGI): Melanoma; for CC50: read-out: 50% lethal concentration (LC50), Melanoma
# [5] = system: M14; type: cell-based; details: M14, Melanoma
# [6] = system: MOLT-4; details: MOLT-4, Leukemia; for CC50: read-out: 50% lethal concentration (LC50)
# [7] = system: HCC-2998; details: HCC-2998, Colon
# [8] = system: HT29; details: HT29, Colon; for CC50: read-out: 50% lethal concentration (LC50)
# [9] = system: SK-MEL-5; details: SK-MEL-5, Melanoma; for CC50: read-out: 50% lethal concentration (LC50)
# [10] = system: OVCAR-3; details: OVCAR-3, Ovarian; for CC50: read-out: 50% lethal concentration (LC50)
# [11] = system: SW-620; details: SW-620, Colon; for CC50: read-out: 50% lethal concentration (LC50)
# [12] = system: T-47D; details: for GI50 / Total growth inhibition (TGI): Breast; for CC50: read-out: 50% lethal concentration (LC50), Breast
# [13] = system: OVCAR-4; type: cell-based; details: OVCAR-4, Ovarian; for CC50: read-out: 50% lethal concentration (LC50)
# [14] = system: EKVX; details: for Total growth inhibition (TGI): Non-Small Cell Lung; for GI50: Non-Small-Cell Lung; for CC50: read-out: 50% lethal concentration (LC50), Non-Small Cell Lung
# [15] = system: RPMI-8226; details: RPMI-8226, Leukemia; for CC50: read-out: 50% lethal concentration (LC50)
# [16] = system: SK-OV-3; details: SK-OV-3, Ovarian; for CC50: read-out: 50% lethal concentration (LC50)
# [17] = system: U251; details: U251, CNS
# [18] = system: SNB-19; type: cell-based; details: SNB-19, CNS
# [19] = system: OVCAR-5; details: OVCAR-5, Ovarian; for CC50: read-out: 50% lethal concentration (LC50)
# [20] = system: MDA-MB-468; details: MDA-MB-468, Breast; for CC50: read-out: 50% lethal concentration (LC50)
# [21] = system: COLO 205; details: COLO 205, Colon
# [22] = system: IGROV1; details: IGROV1, Ovarian; for CC50: read-out: 50% lethal concentration (LC50)
# [23] = system: CAKI-1; details: CAKI-1, Renal; for CC50: read-out: 50% lethal concentration (LC50)
# [24] = system: TK-10; type: cell-based; details: TK-10, Renal
# [25] = system: NCI-H23; details: for Total growth inhibition (TGI) / CC50: NCI-H23, Non-Small Cell Lung; for GI50: NCI-H23, Non-Small-Cell Lung; for CC50: read-out: 50% lethal concentration (LC50)
# [26] = system: KM12; details: KM12, Colon
# [27] = system: K-562; details: K-562, Leukemia; for CC50: read-out: 50% lethal concentration (LC50)
# [28] = system: SF-295; details: SF-295, CNS; for CC50: read-out: 50% lethal concentration (LC50)
# [29] = system: BT-549; type: cell-based; details: BT-549, Breast
# [30] = system: SF-268; details: SF-268, CNS; for CC50: read-out: 50% lethal concentration (LC50)
# [31] = system: SN12C; details: for GI50 / Total growth inhibition (TGI): Renal; for CC50: read-out: 50% lethal concentration (LC50), Renal
# [32] = system: MDA-MB-231; details: for GI50: MDA-MB-231, Breast; for Total growth inhibition (TGI) / CC50: MDA-MB-231/ATCC, Breast; for CC50: read-out: 50% lethal concentration (LC50)
# [33] = read-out: 50% lethal concentration (LC50)
smiles,measurement,setting,value
C=C1CCC2C3(C)COC(c4cn(-c5ccccc5)nc4-c4cccc(Cl)c4)OC3CCC2(C)C1CC=C1C(=O)OCC1O (stereo not drawn) [1d],GI50,[1],2.07 µM
same,CC50,[1],> 100 µM
same,GI50,[2],1.57 µM
same,Total growth inhibition (TGI),[2],3.05 µM
same,GI50,[3],1.77 µM
same,Total growth inhibition (TGI),[3],3.57 µM
same,GI50,[4],1.61 µM
same,Total growth inhibition (TGI),[4],2.97 µM
same,CC50,[4],5.5 µM
same,GI50,[5],1.69 µM
same,Total growth inhibition (TGI),[5],3.88 µM
same,GI50,[6],1.14 µM
same,Total growth inhibition (TGI),[6],3.82 µM
same,CC50,[6],> 100 µM
same,GI50,[7],1.81 µM
same,Total growth inhibition (TGI),[7],3.37 µM
same,GI50,[8],1.49 µM
same,Total growth inhibition (TGI),[8],3.13 µM
same,CC50,[8],6.57 µM
same,GI50,[9],1.63 µM
same,Total growth inhibition (TGI),[9],3 µM
same,CC50,[9],5.53 µM
same,GI50,[10],1.6 µM
same,Total growth inhibition (TGI),[10],3.09 µM
same,CC50,[10],5.95 µM
same,GI50,[11],1.53 µM
same,Total growth inhibition (TGI),[11],3.4 µM
same,CC50,[11],7.55 µM
same,GI50,[12],1.63 µM
same,Total growth inhibition (TGI),[12],4.76 µM
same,CC50,[12],> 100 µM
same,GI50,[13],2.09 µM
same,CC50,[13],> 100 µM
same,Total growth inhibition (TGI),[14],4.95 µM
same,GI50,[14],2.21 µM
same,CC50,[14],> 100 µM
same,GI50,[15],1.38 µM
same,Total growth inhibition (TGI),[15],> 100 µM
same,CC50,[15],> 100 µM
same,GI50,[16],5.86 µM
same,Total growth inhibition (TGI),[16],33.4 µM
same,CC50,[16],> 100 µM
same,GI50,[17],1.59 µM
same,Total growth inhibition (TGI),[17],3 µM
same,GI50,[18],2.24 µM
same,Total growth inhibition (TGI),[18],6.04 µM
same,CC50,[18]; [33],54.8 µM
same,GI50,[19],1.78 µM
same,Total growth inhibition (TGI),[19],4.21 µM
same,CC50,[19],7.73 µM
same,GI50,[20],1.74 µM
same,Total growth inhibition (TGI),[20],3.31 µM
same,CC50,[20],6.3 µM
same,GI50,[21],1.98 µM
same,Total growth inhibition (TGI),[21],4.24 µM
same,GI50,[22],1.39 µM
same,Total growth inhibition (TGI),[22],3.22 µM
same,CC50,[22],7.5 µM
same,GI50,[23],1.32 µM
same,Total growth inhibition (TGI),[23],2.66 µM
same,CC50,[23],5.39 µM
same,GI50,[24],2.14 µM
same,Total growth inhibition (TGI),[24],4.56 µM
same,CC50,[24]; [33],9.71 µM
same,Total growth inhibition (TGI),[25],3.82 µM
same,GI50,[25],1.75 µM
same,CC50,[25],8.31 µM
same,GI50,[26],1.67 µM
same,Total growth inhibition (TGI),[26],3.32 µM
same,GI50,[27],2.41 µM
same,CC50,[27],> 100 µM
same,GI50,[28],1.42 µM
same,Total growth inhibition (TGI),[28],2.75 µM
same,CC50,[28],5.36 µM
same,GI50,[29],1.57 µM
same,Total growth inhibition (TGI),[29],3.63 µM
same,GI50,[30],1.6 µM
same,Total growth inhibition (TGI),[30],3.34 µM
same,CC50,[30],6.94 µM
same,GI50,[31],1.65 µM
same,Total growth inhibition (TGI),[31],3.62 µM
same,CC50,[31],7.92 µM
same,GI50,[32],1.49 µM
same,Total growth inhibition (TGI),[32],2.99 µM
same,CC50,[32],5.97 µM
C=C1CCC2C3(C)COC(c4cn(-c5ccccc5)nc4-c4cccc(F)c4)OC3CCC2(C)C1CC=C1C(=O)OCC1O (stereo not drawn) [1c],GI50,[1],1.97 µM
same,Total growth inhibition (TGI),[1],4.56 µM
same,CC50,[1],> 100 µM
same,GI50,[2],1.79 µM
same,Total growth inhibition (TGI),[2],3.29 µM
same,GI50,[3],1.93 µM
same,Total growth inhibition (TGI),[3],3.87 µM
same,GI50,[4],1.44 µM
same,Total growth inhibition (TGI),[4],2.75 µM
same,CC50,[4],5.25 µM
same,GI50,[5],1.75 µM
same,Total growth inhibition (TGI),[5],3.59 µM
same,GI50,[6],0.69 µM
same,CC50,[6],> 100 µM
same,GI50,[7],1.73 µM
same,Total growth inhibition (TGI),[7],3.2 µM
same,GI50,[8],1.7 µM
same,Total growth inhibition (TGI),[8],4.51 µM
same,CC50,[8],> 100 µM
same,GI50,[9],1.65 µM
same,Total growth inhibition (TGI),[9],3.02 µM
same,CC50,[9],5.51 µM
same,GI50,[10],1.95 µM
same,Total growth inhibition (TGI),[10],3.68 µM
same,CC50,[10],6.94 µM
same,GI50,[11],5.71 µM
same,Total growth inhibition (TGI),[11],> 100 µM
same,CC50,[11],> 100 µM
same,GI50,[12],1.39 µM
same,Total growth inhibition (TGI),[12],4.07 µM
same,CC50,[12],> 100 µM
same,GI50,[13],1.74 µM
same,Total growth inhibition (TGI),[13],4.27 µM
same,CC50,[13],> 100 µM
same,Total growth inhibition (TGI),[14],5.17 µM
same,GI50,[14],2.21 µM
same,CC50,[14],56 µM
same,GI50,[15],2.63 µM
same,Total growth inhibition (TGI),[15],> 100 µM
same,CC50,[15],> 100 µM
same,GI50,[16],2.7 µM
same,Total growth inhibition (TGI),[16],6.09 µM
same,CC50,[16],> 100 µM
same,GI50,[17],1.81 µM
same,Total growth inhibition (TGI),[17],5.61 µM
same,Total growth inhibition (TGI),[18],2.72 µM
same,GI50,[19],1.92 µM
same,Total growth inhibition (TGI),[19],4.61 µM
same,CC50,[19],31 µM
same,GI50,[20],1.63 µM
same,Total growth inhibition (TGI),[20],3.13 µM
same,CC50,[20],6.01 µM
same,GI50,[21],2.06 µM
same,Total growth inhibition (TGI),[21],4.65 µM
same,GI50,[22],2.07 µM
same,Total growth inhibition (TGI),[22],5.72 µM
same,CC50,[22],> 100 µM
same,GI50,[23],1.56 µM
same,Total growth inhibition (TGI),[23],3.09 µM
same,CC50,[23],6.13 µM
same,GI50,[24],1.41 µM
same,Total growth inhibition (TGI),[25],3.57 µM
same,GI50,[25],1.79 µM
same,CC50,[25],7.09 µM
same,GI50,[26],2.26 µM
same,Total growth inhibition (TGI),[26],4.47 µM
same,GI50,[27],2.14 µM
same,Total growth inhibition (TGI),[27],> 100 µM
same,CC50,[27],> 100 µM
same,GI50,[28],1.52 µM
same,Total growth inhibition (TGI),[28],2.88 µM
same,CC50,[28],5.49 µM
same,GI50,[29],1.3 µM
same,Total growth inhibition (TGI),[29],3.01 µM
same,GI50,[30],2.27 µM
same,Total growth inhibition (TGI),[30],5.61 µM
same,CC50,[30],28.4 µM
same,GI50,[31],1.59 µM
same,Total growth inhibition (TGI),[31],3.42 µM
same,CC50,[31],7.34 µM
same,GI50,[32],1.72 µM
same,Total growth inhibition (TGI),[32],3.29 µM
same,CC50,[32],6.28 µM
